What was measured:
[1] = Partition coefficient of the compound (logP); settings: octanol/water
[2] = Distribution coefficient of the compound at pH 7.4 (logD); settings: octanol/water
[3] = The ionization constant (pKa) for the compound

| logP [1] | logD [2] | pKa [3] | Compound |
| --- | --- | --- | --- |
| 3.18 | -1.03 | 9.5 | CN(C)CCCNC(=O)c1cc(NC(=O)c2cc(NC(=O)/C=C/C(=O)Nc3cc(C(=O)Nc4cc(C(=O)NCCCN(C)C)n(C)c4)n(C)c3)cn2C)cn1C |
| 1.47 | -2.74 | 9.5 | CN(C)CCCNC(=O)c1cc(NC(=O)c2cc(NC(=O)CNC(=O)c3cccc(C(=O)NCC(=O)Nc4cc(C(=O)Nc5cc(C(=O)NCCCN(C)C)n(C)c5)n(C)c4)c3)cn2C)cn1C |
| 4.68 | 0.47 | 9.5 | CN(C)CCCNC(=O)c1cc(NC(=O)c2cc(NC(=O)c3cc(NC(=O)c4cc(NC(=O)c5cc(NC(=O)c6cc(NC(=O)CCCN(C)C)cn6C)cn5C)cn4C)cn3C)cn2C)cn1C |
| 3.89 | -0.32 | 9.5 | CN(C)CCCNC(=O)c1cc(NC(=O)c2cc(NC(=O)c3cc(NC(=O)c4cc(NC(=O)c5cc(NC(=O)CCCN(C)C)cn5C)cn4C)cn3C)cn2C)cn1C |
| 2.17 | 0.07 | 9.5 | CN(C)CCCNC(=O)c1cc(NC(=O)c2cc(NC(=O)c3cc(NC=O)cn3C)cn2C)cn1C |
| -0.87 | -5.87 | 12.4 | Cn1cc(NC(=O)c2cc(NC(=O)c3cc(NC=O)cn3C)cn2C)cc1C(=O)NCCC(=N)N [STALLIMYCIN] |
